One series has as its system Ehrlich solid tumor. The experiment in a line: In vivo activity in Ehrlich solid tumor model. Also on record: species or system swiss mice. As to conditions: for % Tumor Growth Inhibition: day 13 vs saline control; for Mortality: dead/group size. As to the method:
Ehrlich ascites carcinoma (EAC) cells were collected from the peritoneal cavity of the swiss mice (animal house of IIIM registered eith CPCSEA; registration no. 67/99/CPCSEA) weighing 18-23 gm, harbouring 8-10 days old ascitic tumor. 1×10^7 EAC cells were injected intramuscularly in the right thigh of 38 swiss male mice selected for the experiment on day 0. The next day, animals were randomized and divided into five groups. Four treatment groups contained 7 animals each and one control group contained 10 animals. Treatment was given as follows:
Group I: 1 (0.75 mg/kg, i/p) from day 1-9.
Group II: 1g (1 mg/kg, i/p) from day 1-9.
The third treatment group was treated with 5-fluorouracil (22 mg/kg, i/p) from day 1-9 and it served as positive control. The control group was similarly administered normal saline (0.2 ml, i/p) from day 1-9. On day 9 & 13, tumor bearing thigh of each animal was shaved and longest and shortest diameters of the tumor were measured with the help of vernier caliper. Tumor weight of each animal was calculated using the following formula.
The percent tumor growth inhibition was calculated on day 13 by comparing the average values of treated groups with that of control group. Tumor growth in saline treated control animals was taken to be 100%.

The subject of the next series is P-gp. The series can be described thus: P-gp induction assay, rhodamine123 (Rh123) cell exclusion method in LS-180 cells. As to conditions: for % intracellular accumulation of Rh123 in LS180 cells: compound 100 nM, decrease indicates P-gp induction; for % intracellular accumulation of Rh123 in LS180 cells / EC50: 48 h; for EC50: read-out: EC50, induction of P-gp, P-gp overexpressing LS-180 cells. The protocol:
All synthesized compounds were screened for their ability to induce P-gp by using rhodamine123 (Rh123) cell exclusion method. In this method, the P-gp function was evaluated in terms of rhodamine 123 (Rh123) accumulation and efflux. Briefly, the protocol used is as follows: Colorectal LS-180 cells (ECACC type, purchased from Sigma, Cat. no. 87021202, cell passage no. 52) were seeded at a density of 2×10^4 per well of 96 well plate and were allowed to grow for next 24 h. Cells were further incubated with the test compounds, and were diluted to a final concentration of 100 nM and rifampicin (standard) to a final concentration of 10 μM in complete media for 48 h. The final concentration of DMSO was kept at 0.1%. Drugs were removed and cells were incubated with HANKS buffer for 40 minutes before further incubation with HANKS buffer (containing 10 μM of Rh123 as a P-gp substrate) for 90 minutes. At the end of Rh123 treatment cells were washed four times with cold PBS followed by cell lysis for 1 h by using 200 μl of lysis buffer (0.1% Triton X-100 and 0.2 N NaOH). A total of 100 μl of lysate was used for reading fluorescence of Rh123 at 485 nm/529 nm. Samples were normalized by dividing fluorescence of each sample with total protein present in the lysate. For EC50 determination, different concentrations of compound were used to treat LS180 cells for 48 h. EC50 was determined by plotting fluorescence of Rh123 against concentration of compound.

A short description of series [1]: Thermodynamic equilibrium solubility. In kind it is physicochemical. The following applies: 25 °C, thermodynamic from solid, 25±1° C. As to the method: The compounds were first dissolved in methanol to prepare stock solutions (100 and 1000 μg/mL). Different concentrations of stock solutions were pipetted into the 96-well plates and the solvent was evaporated to ensure that solid drug was present in the beginning of the experiment. Thereafter, 200 μl of the dissolution medium was added to the wells and 96-well plate was shaken horizontally at 300 rpm (Eppendorf Thermoblock Adapter, North America) for 4 h at room temperature (25±1° C.). The plates were kept overnight for equilibration of drug in medium. Later, the plates were centrifuged at 3000 rpm for 15 min (Jouan centrifuge BR4i). Supernatant (50 μl) was pipetted into UV 96-well plates (Corning® 96 Well Clear Flat Bottom UV-Transparent Microplate) for analyses with plate reader (SpectraMax Plus384) at λmax of 350 nm. The analyses were performed in triplicate for each compound. The solubility curve of concentration (μg/mL) vs absorbance was plotted to find out saturation point and the corresponding concentration was noted.

Series [2] has as its system microtubules in HCT-116 cells. The series can be described thus: Effect of compounds on microtubules, confocal microscopy. The following applies: 100 nM, 24 h, anti-α-tubulin staining, compared to control. Type of series: cell-based, Human. The protocol: For detection of tubulins, HCT-116 cells (1×10^5 cells/well) were seeded on to 18 mm square cover slips in six well plates in complete medium. […] After the treatment period, cells were fixed in 4% paraformaldehyde for 10 min at room temperature and permeabilized using 0.5% Triton-X in PBS for 5 min. The cells were blocked with 10% goat serum for 20 min at room temperature. Microtubules were detected with a monoclonal α-tubulin antibody (Sigma, Catalogue number: T9026) diluted 1:100 in 0.1% Triton X-100 in PBS for 1 h at room temperature and Alexa Fluor 488 conjugated secondary antibody (Invitrogen) diluted 1:500 in PBS for 1 h at room temperature. Cells were then washed three times in PBS and stained with 4′,6-diamidino-2-phenylindole (DAPI 1 μg/ml in PBS). The cover slips were mounted over glass slides and cells were imaged by a laser scanning confocal microscope (Olympus Fluoview FV1000). The promising candidates identified through P-gp screening and antiproliferative screening were further studied for tubulin polymerization inhibition activity.

A further series concerns Colo-205. The series can be described thus: Antiproliferative activity, MTT assay, Colo-205. As to conditions: Homo sapiens, 48 h. In kind it is cell-based. The protocol: (§1) Human colon cancer cell lines HCT-116 (NCI, passage no. 5) and Colo-205 116 (NCI, passage no. 3) were procured from National Cancer Institute, USA. HCT-116 and Colo-205 cells were grown in McCoy's 5A and RPMI growth medium respectively containing 10% FCS, 100 U penicillin and […] per mL medium. Cells were grown in CO2 incubator (Thermocon Electron Corporation, Houston, Tex.) at 37° C. with 95% humidity and 5% CO2 gas environment. Cells treated with tested materials were dissolved in DMSO while the untreated control cultures received only the vehicle (DMSO<0.2%). Cells were seeded in 96 well plates and exposed to tested compounds at various concentrations for 48 h time interval. MTT dye (2.5 mg/ml in PBS) was added 4 hrs priors to experiment termination. The plates were then centrifuged at 1500 rpm for 15 min and the supernatant was discarded, and MTT formazan crystals were dissolved in 150 μl of DMSO. The OD measured at 570 nm with reference wavelength of 620 nm.
(§2) The percentages of cell viability and growth inhibition were calculated using formulas: […]

A further series has as its system HCT-116. The experiment in a line: Antiproliferative activity, MTT assay, HCT-116. Type of series: cell-based, Human. The protocol:
as §1, §2

[3] abbreviates: day 13, i/p day 1-9, 1 0.75 mg/kg, 1g 1 mg/kg, 5-fluorouracil 22 mg/kg.
Where [4] appears, read: i/p day 1-9, 1 0.75 mg/kg, 1g 1 mg/kg, 5-fluorouracil 22 mg/kg.
Where [5] appears, read: aqueous buffer, phosphate buffer saline, read-out: Solubility, PBS.
[6] abbreviates: fassgf or other biorelevant, simulated intestinal fluid, read-out: Solubility, SIF.
[7] abbreviates: simulated gastric fluid, read-out: Solubility, SGF.
[8] abbreviates: water, read-out: Solubility, Water.

In brackets after ≈: the same amount, converted by molar mass. Where two headings read alike, the source gives them in different places.

`O=c1[nH]cc(F)c(=O)[nH]1` [5-Fluorouracil]: in the series on Ehrlich solid tumor (setting [3]), the “Day 13 Avg. tumor weights” value turned out to be 668.2 mg. Moreover, in the series with Ehrlich solid tumor (setting [4]), the “% Tumor Growth Inhibition” value was 54.78% and the Mortality is given as 0/7.
The EC50 is the concentration giving half of the maximal effect. The term solubility denotes the dissolved amount per volume that the medium holds. In the case of `COc1cc2c(c(OC)c1OC)-c1ccc(OC)c(=O)cc1[C@@H](NC(C)=O)CC2` [Compound 1, Colchicine], the “mortality, animals in the group of 7 animals” value is recorded as 2 animals with Ehrlich solid tumor (colchicine 0.75 mg/kg, i/p); 5 animals in the series on Ehrlich solid tumor (colchicine 1 mg/kg, i/p, text and footnote). In the series on Ehrlich solid tumor (day 1, i/p day 1-9, 1 0.75 mg/kg, 1g 1 mg/kg, 5-fluorouracil 22 mg/kg), the “Avg. body weights (g) of animal on days 1” value worked out at 22.28 g. In addition, the “Avg. body weights (g) of animal on days 5” value with Ehrlich solid tumor (day 5, i/p day 1-9, 1 0.75 mg/kg, 1g 1 mg/kg, 5-fluorouracil 22 mg/kg) was determined as 21.42 g. Also, in the series with Ehrlich solid tumor (day 9, i/p day 1-9, 1 0.75 mg/kg, 1g 1 mg/kg, 5-fluorouracil 22 mg/kg), the “Avg. body weights (g) of animal on days 9” value was 20.2 g. For the same compound, the “Day 13 Avg. body weights” value in the series with Ehrlich solid tumor (setting [3]) is 19.25 g. The “Day 13 Avg. tumor weights” value in the series on Ehrlich solid tumor (setting [3]) was determined as 705.0 mg. Further, the “% Tumor Growth Inhibition” value in the series with Ehrlich solid tumor (setting [4]) came out at 52.29%. For the same compound, the Mortality is on record as 5/7 in the series on Ehrlich solid tumor (colchicine 1 mg/kg, i/p) and 2/7 in the series with Ehrlich solid tumor (setting [4]). Besides, the “% intracellular accumulation of Rh123 in LS180 cells” value with P-gp (control = 100%) was determined as 62%. The EC50 in the series on P-gp was determined as 14.4 nM. Moreover, the solubility in series [1] (setting [5]) was 800 µg/mL (≈ 2000 µM); in series [1] (setting [6]), 800 µg/mL (≈ 2000 µM); in series [1] (setting [7]) it was 200 µg/mL (≈ 501 µM); in series [1] (setting [8]), above 1500 µg/mL. For the same compound, in series [2], the “disruption of microtubule assembly” value is “remarkable disruption and loss of microtubules”.
As a reminder, the IC50 is the concentration that gives 50% inhibition. Low values mean greater potency in that assay, high ones weaker potency in that assay. For orientation: melting point means the temperature, or range, at which the solid turns liquid. As for `COc1cc2c(c(OC)c1OC)-c1ccc(N3CCNCC3)c(=O)cc1[C@@H](NC(C)=O)CC2` [Compound 1a, N-[(7S)-1,2,3-Trimethoxy-9-oxo-10-(piperazin-1-yl)-5,6,7,9-tetrahydrobenzo[a]heptalen-7-yl]acetamide], the melting point lay within 158 to 161 °C. The same compound gave an IC50 in the series on Colo-205 of 8000 nM. Moreover, the “% intracellular accumulation of Rh123 in LS180 cells” value in the series on P-gp (control = 100%) is recorded as 90%. Further, the IC50 with HCT-116 (Homo sapiens, HCT-116, 48 h) is above 10000 nM.
For `COc1cc2c(c(OC)c1OC)-c1ccc(N3CCC(N)CC3)c(=O)cc1[C@@H](NC(C)=O)CC2` [Compound 1b, N-[(7S)-1,2,3-Trimethoxy-9-oxo-10-(4-amino-piperidin-1-yl)-5,6,7,9-tetrahydrobenzo[a]heptalen-7-yl]acetamide], the IC50 came to 5000 nM in the series with Colo-205 and 10000 nM with HCT-116 (Homo sapiens, HCT-116, 48 h). Further, the “% intracellular accumulation of Rh123 in LS180 cells” value in the series with P-gp (control = 100%) is 90%.
For the compound `COc1cc2c(c(OC)c1OC)-c1ccc(N3CCN(C(=O)OC(C)(C)C)CC3)c(=O)cc1C(NC(C)=O)CC2` [Compound 1c, N-[(7S)-1,2,3-Trimethoxy-9-oxo-10-(N-boc-piperazin-1-yl)-5,6,7,9-tetrahydrobenzo[a]heptalen-7-yl]acetamide], the IC50 worked out at 3000 nM in the series with Colo-205 and 4000 nM in the series on HCT-116 (Homo sapiens, HCT-116, 48 h).
As to `COc1cc2c(c(OC)c1OC)-c1ccc(N3CCC(c4ccccc4)CC3)c(=O)cc1C(NC(C)=O)CC2` [Compound 1d, N-[(7S)-1,2,3-Timethoxy-9-oxo-10-(4-phenyl-piperidin-1-yl)-5,6,7,9-tetrahydrobenzo[a]heptalen-7-yl]acetamide], the IC50 in the series with Colo-205 is 800 nM; in the series on HCT-116 (48 h) it was 1000 nM; in the series on HCT-116 (Homo sapiens, HCT-116, 48 h) it was at most 1000 nM. Also, the “% intracellular accumulation of Rh123 in LS180 cells” value in the series with P-gp (control = 100%) was determined as 90%. For the same compound, the EC50 with P-gp was determined as 29.6 nM. Besides, the solubility in series [1] (setting [5]) was 80 µg/mL (≈ 151 µM); in series [1] (setting [6]) it was 20 µg/mL (≈ 37.8 µM); in series [1] (setting [7]) it was above 1500 µg/mL; in series [1] (setting [8]) it was 80 µg/mL (≈ 151 µM).
As for `COc1cc2c(c(OC)c1OC)-c1ccc(N3CCC[C@@H]3CO)c(=O)cc1C(NC(C)=O)CC2` (stereo partly drawn) [Compound 1e, N-[(7S)-1,2,3-Trimethoxy-9-oxo-10-(L-prolinol-1-yl)-5,6,7,9-tetrahydrobenzo[a]heptalen-7-yl]acetamide], the IC50 in the series on Colo-205 came to 8000 nM; with HCT-116 (Homo sapiens, HCT-116, 48 h), 10000 nM.
As to `COc1cc2c(c(OC)c1OC)-c1ccc(N3CCc4c([nH]c5ccccc45)C3)c(=O)cc1[C@@H](NC(C)=O)CC2` [Compound 1f, N-[(7S)-1,2,3-Trimethoxy-9-oxo-10-(2,3,4,9-tetrahydro-1H-pyrido[3,4-b]indole-2-yl)-5,6,7,9-tetrahydrobenzo[a]heptalen-7-yl]acetamide], the IC50 stood at 800 nM with Colo-205 and 3000 nM with HCT-116 (Homo sapiens, HCT-116, 48 h). For the same compound, the “% intracellular accumulation of Rh123 in LS180 cells” value in the series with P-gp (control = 100%) is listed as 90%.
Turning to `CO[C@H]1/C=C/O[C@@]2(C)Oc3c(C)c(O)c4c(O)c(c(/C=N/N5CCN(C)CC5)c(O)c4c3C2=O)NC(=O)/C(C)=C\C=C\[C@H](C)[C@H](O)[C@@H](C)[C@@H](O)[C@@H](C)[C@H](OC(C)=O)[C@@H]1C` [rifampicin, reference compound], the “% intracellular accumulation of Rh123” value in the series on P-gp (rifampicin 10 μM, positive control, control = 100%) came to 69%.

These data come from US9868695B2 (priority 2014, dated 2018).
